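1) Cells in 96-well plates. 2) Compound, 48 h, 5 concentrations. 3) Linear interpolation between surrounding doses. 4) Unreached endpoint = highest concentration. The concentration for full growth arrest is given as TGI.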
Assays:
Assay in all cases: growth of human tumour cells (NCI), 48 h
M14 melanoma = tested on: M14 melanoma
K-562 leukemia = tested on: K-562 leukemia
SW-620 colon = tested on: SW-620 colon
SF-268 CNS = tested on: SF-268 CNS
MDA-N = tested on: MDA-N
HT29 colon = tested on: HT29 colon
BT-549 breast = tested on: BT-549 breast
NCI-H460 lung = tested on: NCI-H460 lung
HOP-62 NSCLC = tested on: HOP-62 NSCLC
HCT-15 colon = tested on: HCT-15 colon
OVCAR-3 ovarian = tested on: OVCAR-3 ovarian
MDA-MB-435 = tested on: MDA-MB-435
A549 NSCLC = tested on: A549 NSCLC
T-47D breast = tested on: T-47D breast
ACHN renal = tested on: ACHN renal
SF-295 CNS = tested on: SF-295 CNS
IGROV1 ovarian = tested on: IGROV1 ovarian
NCI-H226 lung = tested on: NCI-H226 lung
SK-MEL-2 melanoma = tested on: SK-MEL-2 melanoma
EKVX NSCLC = tested on: EKVX NSCLC
NCI/ADR-RES ovarian = tested on: NCI/ADR-RES ovarian
NCI-H23 lung = tested on: NCI-H23 lung
PC-3 prostate = tested on: PC-3 prostate
UACC-62 melanoma = tested on: UACC-62 melanoma
TK-10 renal = tested on: TK-10 renal
SR leukemia = tested on: SR leukemia
UO-31 renal = tested on: UO-31 renal
CAKI-1 renal = tested on: CAKI-1 renal
MOLT-4 leukemia = tested on: MOLT-4 leukemia
786-0 renal = tested on: 786-0 renal
OVCAR-8 ovarian = tested on: OVCAR-8 ovarian
HCT-116 colon = tested on: HCT-116 colon
DU-145 prostate = tested on: DU-145 prostate
UACC-257 melanoma = tested on: UACC-257 melanoma
A498 renal = tested on: A498 renal
HOP-92 NSCLC = tested on: HOP-92 NSCLC
U251 CNS = tested on: U251 CNS
NCI-H522 lung = tested on: NCI-H522 lung
SNB-75 CNS = tested on: SNB-75 CNS
SK-MEL-28 melanoma = tested on: SK-MEL-28 melanoma
LOX IMVI melanoma = tested on: LOX IMVI melanoma
MDA-MB-231 breast = tested on: MDA-MB-231 breast
KM12 colon = tested on: KM12 colon
MALME-3M melanoma = tested on: MALME-3M melanoma
SNB-19 CNS = tested on: SNB-19 CNS
OVCAR-4 ovarian = tested on: OVCAR-4 ovarian
RXF 393 renal = tested on: RXF 393 renal
OVCAR-5 ovarian = tested on: OVCAR-5 ovarian
SK-MEL-5 melanoma = tested on: SK-MEL-5 melanoma
HL-60(TB) leukemia = tested on: HL-60(TB) leukemia
SN12C renal = tested on: SN12C renal
RPMI-8226 leukemia = tested on: RPMI-8226 leukemia
SK-OV-3 ovarian = tested on: SK-OV-3 ovarian
CCRF-CEM leukemia = tested on: CCRF-CEM leukemia
HCC-2998 colon = tested on: HCC-2998 colon
MCF7 breast = tested on: MCF7 breast
HS 578T breast = tested on: HS 578T breast
SF-539 CNS = tested on: SF-539 CNS

Measured: TGI

O=C(O)c1cc(=O)[nH]c(SCc2ccccc2)n1
not listed: RPMI-8226 leukemia | SK-OV-3 ovarian | CCRF-CEM leukemia | HCC-2998 colon | MCF7 breast | HS 578T breast | SF-539 CNS
> 100 µM: all other assays above

Cc1c(C#N)c2ccccc2c2nc3ccccc3n12
86.9 µM: MDA-MB-231 breast
36.5 µM: SK-MEL-5 melanoma
not listed: M14 melanoma | SF-268 CNS | HT29 colon | T-47D breast | NCI-H23 lung | SR leukemia | MALME-3M melanoma
> 100 µM: all other assays above

— PubChem BioAssay (NCI)
